Type in all cases: cell-based
Assay [1] deals with A431 cells. Put plainly: Cell growth inhibition (CellTiter-Glo), A431. To be noted: Homo sapiens, A-431, 72 h, 3 days. The method, boiled down:
(§1)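 HCC827 cells in RPMI and A431 cells in DMEM (both 10% FBS) were seeded at 5000 cells/well and left overnight. They were then exposed to compound dilutions for 3 days at 37° C. Viability was read by CellTiter-Glo luminescence.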
On the technique in general: Cellular ATP, detected with luciferase, serves as a proxy for viable cell number.

In assay [2] the test system is HCC827 cells. Kind of assay: Cell growth inhibition (CellTiter-Glo), HCC827. The conditions noted are these: Homo sapiens, 72 h, 3 days. The essentials:
as §1

The test system of assay [3] is HCC827-SVD cells (human EGFR exon 20 insertion mutant D770_N771insSVD). Put plainly: Cell growth inhibition (CellTiter-Glo), HCC827-SVD. To be noted: 72 h, 3 days. The method, boiled down:
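HCC827 cells with endogenous EGFR knocked out and lentivirally expressing the insertion mutant (single clone) were seeded at 5000 cells/well in RPMI with 10% FBS. After overnight, compounds added; 3 days at 37 °C, then CellTiter-Glo luminescence.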

Assay [4] relates to HCC827-YVMA cells (human ERBB2 exon20 insertion mutant A775_G776ins YVMA). Kind of assay: Cell growth inhibition (CellTiter-Glo), HCC827-YVMA. To be noted: 72 h, HCC827-YVMA cells, 3 days, CellTiter-Glo, read-out: Cell growth inhibition, GI50 (nM) HCC827-YVMA. The method, boiled down: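 HCC827 cells transduced with lentiviral codon-optimized mutant (ERBB2 A775_G776insYVMA or EGFR V769_D770insASV), endogenous EGFR knocked out by CRISPR, single clone selected. Cells seeded overnight in RPMI/10% FBS, then exposed to serially diluted compounds at 37 °C for 3 days; viability read by CellTiter-Glo luminescence.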

From patent publication US20240059698A1 (Accutar Biotechnology Inc., priority 2022, published 2024) come the findings set out here.

Broadly, the GI50 is the concentration giving 50% growth inhibition. For `C=CC(=O)N1CCC(c2n[nH]c3ncnc(Nc4ccc(OCc5nnsc5Cl)cc4F)c23)CC1` [Compound 195, 1-(4-(4-((4-((5-chloro-1,2,3-thiadiazol-4-yl)methoxy)-2-fluorophenyl)amino)-1H-pyrazolo[3,4-d]pyrimidin-3-yl)piperidin-1-yl)prop-2-en-1-one], the GI50 was above 1000 nM in assay [1], below 50 nM in assay [2], below 50 nM in assay [3] and 50 to 200 nM in assay [4].
As for `C=CC(=O)N1CCC(c2c[nH]c3ncnc(Nc4ccc(OCc5nccs5)c(Cl)c4)c23)CC1` [Compound 153, 1-(4-(4-((3-chloro-4-(thiazol-2-ylmethoxy)phenyl)amino)-7H-pyrrolo[2,3-d]pyrimidin-5-yl)piperidin-1-yl)prop-2-en-1-one], the GI50 in assay [1], in assay [2], in assay [3] and in assay [4] was below 50 nM throughout.
With `C=CC(=O)N1CCC(c2n[nH]c3ncnc(Nc4ccc(Oc5ccnc(N6CC7(CCOCC7)C6)c5)cc4F)c23)CC1` [Compound 181, 1-(4-(4-((4-((2-(7-oxa-2-azaspiro[3.5]nonan-2-yl)pyridin-4-yl)oxy)-2-fluorophenyl)amino)-1H-pyrazolo[3,4-d]pyrimidin-3-yl)piperidin-1-yl)prop-2-en-1-one], the GI50 was above 1000 nM in assay [1], above 1000 nM in assay [2], 50 to 200 nM in assay [3] and 50 to 200 nM in assay [4].
As to `C=CC(=O)N1CCC(c2ccn3ncnc(Nc4ccc(Oc5ccnc(N6CCC(C#N)C6)c5)cc4F)c23)CC1` (centres unmarked) [Compound 204, 1-(4-(4-((5-(1-acryloylpiperidin-4-yl)pyrrolo[2,1-f][1,2,4]triazin-4-yl)amino)-3-fluorophenoxy)pyridin-2-yl)pyrrolidine-3-carbonitrile], the GI50 was above 1000 nM in assay [1], above 1000 nM in assay [2], 50 to 200 nM in assay [3] and 50 to 200 nM in assay [4].
`C=CC(=O)N1CCC(c2n[nH]c3ncnc(Nc4ccc(Oc5ccnc(NC(=O)C(C)C)c5)cc4F)c23)CC1` [Compound 182, N-(4-(4-((3-(1-acryloylpiperidin-4-yl)-1H-pyrazolo[3,4-d]pyrimidin-4-yl)amino)-3-fluorophenoxy)pyridin-2-yl)isobutyramide]: the GI50 in assay [1] is above 1000 nM; in assay [2], above 1000 nM; in assay [3] it was 50 to 200 nM; in assay [4], 50 to 200 nM.
As for `C=CC(=O)N1CCC(c2c[nH]c3ncnc(Nc4ccc(Oc5ccnc(N6C[C@H](OC)[C@H](OC)C6)c5)cc4F)c23)CC1` [Compound 139, 1-(4-(4-((4-((2-((3R,4S)-3,4-dimethoxypyrrolidin-1-yl)pyridin-4-yl)oxy)-2-fluorophenyl)amino)-7H-pyrrolo[2,3-d]pyrimidin-5-yl)piperidin-1-yl)prop-2-en-1-one], the concentration for 50% growth inhibition (GI50) in assay [1] was above 1000 nM; in assay [2] it was above 1000 nM; in assay [3], 50 to 200 nM; in assay [4], above 1000 nM.
As for `C=CC(=O)N1CCC(c2ccn3ncnc(Nc4ccc(Oc5ccnc(N6CC7C(C6)C7(F)F)c5)cc4F)c23)CC1` (centres unmarked) [Compound 200, 1-(4-(4-((4-((2-(6,6-difluoro-3-azabicyclo[3.1.0]hexan-3-yl)pyridin-4-yl)oxy)-2-fluorophenyl)amino)pyrrolo[2,1-f][1,2,4]triazin-5-yl)piperidin-1-yl)prop-2-en-1-one], the GI50 was above 1000 nM in assay [1], 200 to 1000 nM in assay [2], 50 to 200 nM in assay [3] and 50 to 200 nM in assay [4].
As for `C=CC(=O)N1CCC(c2n[nH]c3ncnc(Nc4ccc(O[C@H]5CCCN(S(=O)(=O)c6cccs6)C5)cc4F)c23)CC1` [Compound 186, (S)-1-(4-(4-((2-fluoro-4-((1-(thiophen-2-ylsulfonyl)piperidin-3-yl)oxy)phenyl)amino)-1H-pyrazolo[3,4-d]pyrimidin-3-yl)piperidin-1-yl)prop-2-en-1-one], the GI50 in assay [1] is above 1000 nM; in assay [2], 200 to 1000 nM; in assay [3], 200 to 1000 nM; in assay [4], 50 to 200 nM.
